# Source: PubChem BioAssay (NCI)
#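 Assay format: 96-well plates, 48-hour exposure. GI50 is the concentration that inhibits growth by half. At the TGI there is no net growth.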
# Experiments:
# Experiment in all cases: DTP human tumour cell line panel, 48 h
# MALME-3M melanoma = system: MALME-3M melanoma
# UACC-62 melanoma = system: UACC-62 melanoma
# SF-539 CNS = system: SF-539 CNS
# HOP-92 NSCLC = system: HOP-92 NSCLC
# MDA-MB-435 = system: MDA-MB-435
# ACHN renal = system: ACHN renal
# SF-268 CNS = system: SF-268 CNS
# LOX IMVI melanoma = system: LOX IMVI melanoma
# OVCAR-8 ovarian = system: OVCAR-8 ovarian
# KM12 colon = system: KM12 colon
# SK-OV-3 ovarian = system: SK-OV-3 ovarian
# NCI-H23 lung = system: NCI-H23 lung
# SF-295 CNS = system: SF-295 CNS
# RXF 393 renal = system: RXF 393 renal
# SNB-19 CNS = system: SNB-19 CNS
# EKVX NSCLC = system: EKVX NSCLC
# HCT-116 colon = system: HCT-116 colon
# SNB-75 CNS = system: SNB-75 CNS
# PC-3 prostate = system: PC-3 prostate
# IGROV1 ovarian = system: IGROV1 ovarian
# U251 CNS = system: U251 CNS
# MDA-MB-231 breast = system: MDA-MB-231 breast
# NCI-H226 lung = system: NCI-H226 lung
# K-562 leukemia = system: K-562 leukemia
# SK-MEL-28 melanoma = system: SK-MEL-28 melanoma
# UACC-257 melanoma = system: UACC-257 melanoma
# COLO 205 colon = system: COLO 205 colon
# HCC-2998 colon = system: HCC-2998 colon
# DU-145 prostate = system: DU-145 prostate
# A549 NSCLC = system: A549 NSCLC
# UO-31 renal = system: UO-31 renal
# SW-620 colon = system: SW-620 colon
# HCT-15 colon = system: HCT-15 colon
# SN12C renal = system: SN12C renal
# M14 melanoma = system: M14 melanoma
# NCI-H460 lung = system: NCI-H460 lung
# OVCAR-5 ovarian = system: OVCAR-5 ovarian
# HOP-62 NSCLC = system: HOP-62 NSCLC
# SR leukemia = system: SR leukemia
# TK-10 renal = system: TK-10 renal
# CCRF-CEM leukemia = system: CCRF-CEM leukemia
# 786-0 renal = system: 786-0 renal
# BT-549 breast = system: BT-549 breast
# MCF7 breast = system: MCF7 breast
# MOLT-4 leukemia = system: MOLT-4 leukemia
# NCI-H522 lung = system: NCI-H522 lung
# SK-MEL-5 melanoma = system: SK-MEL-5 melanoma
# OVCAR-4 ovarian = system: OVCAR-4 ovarian
# HS 578T breast = system: HS 578T breast
# HT29 colon = system: HT29 colon
# A498 renal = system: A498 renal
# T-47D breast = system: T-47D breast
# NCI/ADR-RES ovarian = system: NCI/ADR-RES ovarian
# SK-MEL-2 melanoma = system: SK-MEL-2 melanoma
# OVCAR-3 ovarian = system: OVCAR-3 ovarian
# CAKI-1 renal = system: CAKI-1 renal
# HL-60(TB) leukemia = system: HL-60(TB) leukemia
# RPMI-8226 leukemia = system: RPMI-8226 leukemia
smiles,measurement,setting,value
CCCCCCCCCCCCOC1C(CNC(=O)C2OC3OC(C)(C)OC3C2NC(=O)CN2CCN(c3ccccn3)CC2)OC2OC(C)(C)OC21 (stereo not given),GI50,MALME-3M melanoma,1.88 µM
same,TGI,MALME-3M melanoma,3.86 µM
same,GI50,UACC-62 melanoma,1.61 µM
same,TGI,UACC-62 melanoma,3.05 µM
same,GI50,SF-539 CNS,1.93 µM
same,TGI,SF-539 CNS,3.44 µM
same,GI50,HOP-92 NSCLC,1.7 µM
same,TGI,HOP-92 NSCLC,3.18 µM
same,GI50,MDA-MB-435,1.69 µM
same,TGI,MDA-MB-435,3.36 µM
same,GI50,ACHN renal,1.77 µM
same,TGI,ACHN renal,3.21 µM
same,GI50,SF-268 CNS,2.26 µM
same,TGI,SF-268 CNS,6.31 µM
same,GI50,LOX IMVI melanoma,1.88 µM
same,TGI,LOX IMVI melanoma,3.53 µM
same,GI50,OVCAR-8 ovarian,1.62 µM
same,TGI,OVCAR-8 ovarian,3.15 µM
same,GI50,KM12 colon,2.16 µM
same,TGI,KM12 colon,4.43 µM
same,GI50,SK-OV-3 ovarian,5.18 µM
same,TGI,SK-OV-3 ovarian,9.86 µM
same,GI50,NCI-H23 lung,4.16 µM
same,TGI,NCI-H23 lung,9.1 µM
same,GI50,SF-295 CNS,1.77 µM
same,TGI,SF-295 CNS,3.48 µM
same,GI50,RXF 393 renal,1.36 µM
same,TGI,RXF 393 renal,2.74 µM
same,GI50,SNB-19 CNS,2.96 µM
same,TGI,SNB-19 CNS,7.99 µM
same,GI50,EKVX NSCLC,1.7 µM
same,TGI,EKVX NSCLC,3.14 µM
same,GI50,HCT-116 colon,1.61 µM
same,TGI,HCT-116 colon,3.04 µM
same,GI50,SNB-75 CNS,2.31 µM
same,TGI,SNB-75 CNS,6.77 µM
same,GI50,PC-3 prostate,1.75 µM
same,TGI,PC-3 prostate,3.24 µM
same,GI50,IGROV1 ovarian,1.87 µM
same,TGI,IGROV1 ovarian,3.45 µM
same,GI50,U251 CNS,1.86 µM
same,TGI,U251 CNS,3.46 µM
same,GI50,MDA-MB-231 breast,1.67 µM
same,TGI,MDA-MB-231 breast,3.14 µM
same,GI50,NCI-H226 lung,1.82 µM
same,TGI,NCI-H226 lung,3.72 µM
same,GI50,K-562 leukemia,1.67 µM
same,TGI,K-562 leukemia,4.56 µM
same,GI50,SK-MEL-28 melanoma,2.53 µM
same,TGI,SK-MEL-28 melanoma,7.47 µM
same,GI50,UACC-257 melanoma,1.81 µM
same,TGI,UACC-257 melanoma,3.49 µM
same,GI50,COLO 205 colon,2.33 µM
same,TGI,COLO 205 colon,5.01 µM
same,GI50,HCC-2998 colon,6.18 µM
same,TGI,HCC-2998 colon,19.7 µM
same,GI50,DU-145 prostate,1.68 µM
same,TGI,DU-145 prostate,3.04 µM
same,GI50,A549 NSCLC,1.6 µM
same,TGI,A549 NSCLC,3.07 µM
same,GI50,UO-31 renal,1.42 µM
same,TGI,UO-31 renal,2.72 µM
same,GI50,SW-620 colon,1.69 µM
same,TGI,SW-620 colon,3.18 µM
same,GI50,HCT-15 colon,1.76 µM
same,TGI,HCT-15 colon,3.31 µM
same,GI50,SN12C renal,1.75 µM
same,TGI,SN12C renal,3.24 µM
same,GI50,M14 melanoma,1.68 µM
same,TGI,M14 melanoma,3.1 µM
same,GI50,NCI-H460 lung,1.77 µM
same,TGI,NCI-H460 lung,3.38 µM
same,GI50,OVCAR-5 ovarian,4.11 µM
same,TGI,OVCAR-5 ovarian,8.35 µM
same,GI50,HOP-62 NSCLC,1.94 µM
same,TGI,HOP-62 NSCLC,3.53 µM
same,TGI,SR leukemia,1.86 µM
same,GI50,TK-10 renal,1.76 µM
same,TGI,TK-10 renal,3.27 µM
same,GI50,CCRF-CEM leukemia,2.5 µM
same,TGI,CCRF-CEM leukemia,5.5 µM
same,GI50,786-0 renal,1.79 µM
same,TGI,786-0 renal,3.22 µM
same,GI50,BT-549 breast,1.83 µM
same,TGI,BT-549 breast,3.39 µM
same,GI50,MCF7 breast,1.94 µM
same,TGI,MCF7 breast,4.58 µM
same,GI50,MOLT-4 leukemia,1.86 µM
same,TGI,MOLT-4 leukemia,4.45 µM
same,GI50,NCI-H522 lung,1.66 µM
same,TGI,NCI-H522 lung,3.2 µM
same,GI50,SK-MEL-5 melanoma,1.7 µM
same,TGI,SK-MEL-5 melanoma,3.09 µM
same,GI50,OVCAR-4 ovarian,2.52 µM
same,TGI,OVCAR-4 ovarian,7.7 µM
same,GI50,HS 578T breast,1.9 µM
same,TGI,HS 578T breast,4.69 µM
same,GI50,HT29 colon,1.75 µM
same,TGI,HT29 colon,3.34 µM
same,GI50,A498 renal,1.6 µM
same,TGI,A498 renal,2.97 µM
same,GI50,T-47D breast,2.81 µM
same,TGI,T-47D breast,8.61 µM
same,GI50,NCI/ADR-RES ovarian,2.64 µM
same,TGI,NCI/ADR-RES ovarian,7.39 µM
same,GI50,SK-MEL-2 melanoma,1.65 µM
same,TGI,SK-MEL-2 melanoma,3.32 µM
same,GI50,OVCAR-3 ovarian,1.54 µM
same,TGI,OVCAR-3 ovarian,3.02 µM
same,GI50,CAKI-1 renal,2.27 µM
same,TGI,CAKI-1 renal,4.59 µM
O/N=C(\C=N\O)c1ccc2c(c1)Sc1ccccc1O2,TGI,MALME-3M melanoma,72.5 µM
same,TGI,UACC-62 melanoma,37.7 µM
same,TGI,SF-539 CNS,82.4 µM
same,TGI,HOP-92 NSCLC,36.8 µM
same,TGI,MDA-MB-435,33.9 µM
same,TGI,ACHN renal,42.8 µM
same,TGI,SF-268 CNS,38.4 µM
same,TGI,LOX IMVI melanoma,> 100 µM
same,TGI,OVCAR-8 ovarian,74.8 µM
same,TGI,KM12 colon,> 100 µM
same,TGI,SK-OV-3 ovarian,40.2 µM
same,TGI,NCI-H23 lung,60.3 µM
same,TGI,SF-295 CNS,46.3 µM
same,TGI,RXF 393 renal,36 µM
same,TGI,SNB-19 CNS,67.8 µM
same,TGI,EKVX NSCLC,48.9 µM
same,TGI,HCT-116 colon,45.7 µM
same,TGI,SNB-75 CNS,50.3 µM
same,TGI,PC-3 prostate,66.1 µM
same,TGI,U251 CNS,98.7 µM
same,TGI,HL-60(TB) leukemia,59.8 µM
same,TGI,MDA-MB-231 breast,38.4 µM
same,TGI,NCI-H226 lung,69.6 µM
same,TGI,K-562 leukemia,85.4 µM
same,TGI,SK-MEL-28 melanoma,75.3 µM
same,TGI,UACC-257 melanoma,42 µM
same,TGI,COLO 205 colon,54.3 µM
same,TGI,HCC-2998 colon,41.9 µM
same,TGI,DU-145 prostate,> 100 µM
same,TGI,A549 NSCLC,> 100 µM
same,TGI,UO-31 renal,54 µM
same,TGI,RPMI-8226 leukemia,38.9 µM
same,TGI,SW-620 colon,78.7 µM
same,TGI,HCT-15 colon,75.2 µM
same,TGI,SN12C renal,37.1 µM
same,TGI,M14 melanoma,39.6 µM
same,TGI,NCI-H460 lung,60.5 µM
same,TGI,OVCAR-5 ovarian,87.5 µM
same,TGI,HOP-62 NSCLC,36.8 µM
same,TGI,SR leukemia,75.9 µM
same,TGI,TK-10 renal,84.1 µM
same,TGI,CCRF-CEM leukemia,7.43 µM
same,TGI,786-0 renal,38.6 µM
same,TGI,BT-549 breast,40.7 µM
same,TGI,MCF7 breast,40.6 µM
same,TGI,MOLT-4 leukemia,32.7 µM
same,TGI,NCI-H522 lung,8.17 µM
same,TGI,OVCAR-4 ovarian,74.2 µM
same,TGI,HS 578T breast,> 100 µM
same,TGI,HT29 colon,49.7 µM
same,TGI,A498 renal,41.6 µM
same,TGI,T-47D breast,74.7 µM
same,TGI,OVCAR-3 ovarian,48.8 µM
same,TGI,CAKI-1 renal,61.1 µM
